Assay results published in US20260007617A1, “METHOD FOR TREATING RENAL CELL CARCINOMA OR CANCER” (Lantern Pharma Inc., priority 2023, published 2026).
pIC50: −log10 of the molar value.

How the values were obtained:
Assay type in all cases: cell-based
UO31 = experiment: cell viability IC50 over 72 hours, UO31 kidney cell line; conditions: Homo sapiens, UO-31
Experimental: (§1) FIG. 4 details the sensitivity of various cell lines to LP-184, showing cell death over 72 hours. Sensitivity, gauged by IC50 data, reflects how effectively a substance can inhibit a particular biological or biochemical function. […] This IC50 value, indicating the concentration needed to reduce cell viability by 50%, is key to understanding the compound's efficacy and the temporal response of the cells to the substance. Such analyses are vital for new drug development and therapeutic approaches, offering important insights into how cells react to different compounds over time.
as §1, with “Sensitivity,” for “FIG. 4 details the sensitivity of various cell lines to LP-184, showing cell death over 72 hours. Sensitivity,”

X7860 = experiment: cell viability IC50 over 72 hours, X7860 kidney cell line
Experimental: as §1
as §1, with “Sensitivity,” for “FIG. 4 details the sensitivity of various cell lines to LP-184, showing cell death over 72 hours. Sensitivity,”

RXF393 = experiment: cell viability IC50 over 72 hours, RXF393 kidney cell line; conditions: for pIC50: Homo sapiens, RXF 393, RXF393 cell line, Kidney, 72 hours
Experimental: as §1
as §1, with “Sensitivity,” for “FIG. 4 details the sensitivity of various cell lines to LP-184, showing cell death over 72 hours. Sensitivity,”

ACHN = experiment: cell viability IC50 over 72 hours, ACHN kidney cell line; conditions: Homo sapiens
Experimental: as §1
as §1, with “Sensitivity,” for “FIG. 4 details the sensitivity of various cell lines to LP-184, showing cell death over 72 hours. Sensitivity,”

TK10 = experiment: cell viability IC50 over 72 hours, TK10 kidney cell line; conditions: Homo sapiens, TK-10
Experimental: as §1
as §1, with “Sensitivity,” for “FIG. 4 details the sensitivity of various cell lines to LP-184, showing cell death over 72 hours. Sensitivity,”

A498 = experiment: cell viability IC50 over 72 hours, A498 kidney cell line; conditions: for pIC50: Homo sapiens, A498 cell line, Kidney, 72 hours
Experimental: as §1
as §1, with “Sensitivity,” for “FIG. 4 details the sensitivity of various cell lines to LP-184, showing cell death over 72 hours. Sensitivity,”

CAK11 = experiment: cell viability IC50 over 72 hours, CAK11 kidney cell line
Experimental: as §1
as §1, with “Sensitivity,” for “FIG. 4 details the sensitivity of various cell lines to LP-184, showing cell death over 72 hours. Sensitivity,”

SN12C = experiment: cell viability IC50 over 72 hours, SN12C kidney cell line; conditions: Homo sapiens
Experimental: as §1
as §1, with “Sensitivity,” for “FIG. 4 details the sensitivity of various cell lines to LP-184, showing cell death over 72 hours. Sensitivity,”

786O = experiment: sensitivity of renal cell line 786O to LP-184; conditions: 786O cell line
Text: (§2) By contrast, the RPE1 cell lines acted as a negative control, showcasing a distinct reaction to the treatment.

769P = experiment: sensitivity of renal cell line 769P to LP-184; conditions: 769P cell line
Text: as §2

pIC50 (ACHN) | SMILES | pIC50 (UO31) | pIC50 (X7860) | pIC50 (RXF393) | pIC50 (TK10) | pIC50 (A498) | pIC50 (CAK11) | pIC50 (SN12C) | sensitivity of cell line (in words) (786O) | sensitivity of cell line (in words) (RXF393; RXF393 clear cell renal carcinoma cell line) | sensitivity of cell line (in words) (769P) | sensitivity of cell line (in words) (A498; A498 clear cell renal carcinoma cell line)
5.95 | CC1=C(CN(O)C(N)=O)C2=C(C)C3(CC3)[C@](C)(O)C(=O)C2=C1 [LP-284, (+)-hydroxyureamethyl acylfulvene] | 6.60 | 5.65 | 6.48 | 5.70 | 5.87 | 5.72 | 5.58 |  |  |  | 
6.65 | CC1=C(CN(O)C(N)=O)C2=C(C)C3(CC3)[C@@](C)(O)C(=O)C2=C1 [LP-184, (−)-hydroxyureamethyl acylfulvene] | 6.75 | 6.48 | 6.82 | 6.50 | 6.75 | 6.55 | 6.46 | low sensitivity | high sensitivity | low sensitivity | high sensitivity
